As usually defined, the IC50 is the point on the concentration scale where inhibition reaches its midpoint.

One test has as its target T1, Dihydrofolate reductase (Homo sapiens, UniProt P00374).
T1 sequence (P00374 whole entry): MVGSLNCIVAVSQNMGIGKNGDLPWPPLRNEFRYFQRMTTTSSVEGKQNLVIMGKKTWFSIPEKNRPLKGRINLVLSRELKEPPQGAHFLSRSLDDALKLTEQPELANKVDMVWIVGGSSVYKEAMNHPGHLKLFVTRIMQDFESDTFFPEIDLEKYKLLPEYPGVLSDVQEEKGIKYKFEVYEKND
Put plainly: Inhibition of human DHFR assessed as conversion of dihydrofolic acid to tetrahydrfolic acid by enzyme immunoassay in presence of NADPH.

The test system of another test is OVCAR-4. The conditions noted are these: Homo sapiens, 10'-5 M.
A further test relates to ACHN. The conditions noted are these: Homo sapiens, 10^-5 M.
Another test has as its system SF-268. The conditions noted are these: Homo sapiens, 10^-5 M.
The subject of a further test is RPMI-8226. The conditions noted are these: Homo sapiens, 10^-5 M.
In a further test the test system is Hs-578T. The conditions noted are these: Homo sapiens, 10^-5 M.
A further test deals with NCI/ADR-RES. The conditions noted are these: Homo sapiens, 10^-5 M.
A further test relates to UACC-62. The conditions noted are these: Homo sapiens, 10^-5 M.
The subject of another test is BT-549. The conditions noted are these: Homo sapiens, 10^-5 M.
The next test concerns SNB-75. The conditions noted are these: Homo sapiens, 10^-5 M.
The test system of another test is SR. The conditions noted are these: Homo sapiens, 10^-5 M.
The test system of the next test is 786-0. The conditions noted are these: Homo sapiens, 10^-5 M.
Another test concerns Malme-3M. The conditions noted are these: Homo sapiens, 10^-5 M.
The subject of another test is SK-MEL-5. The conditions noted are these: Homo sapiens, 10^-5 M.
The next test concerns IGROV-1. The conditions noted are these: Homo sapiens, 10^-5 M.
Another test has as its system SK-MEL-28. The conditions noted are these: Homo sapiens, 10^-5 M.
Another test has as its system HCT-116. The conditions noted are these: Homo sapiens, 10^-5 M.
The subject of a further test is OVCAR-5. The conditions noted are these: Homo sapiens, 10^-5 M.
For the next test, the system named is MCF7. The conditions noted are these: Homo sapiens, 10^-5 M.
The subject of another test is HT-29. The conditions noted are these: Homo sapiens, 10^-5 M.
The subject of the next test is CAKI-1. The conditions noted are these: Homo sapiens, 10^-5 M.
For another test, the system named is MOLT-4. The conditions noted are these: Homo sapiens, 10^-5 M.
The next test concerns UO-31. The conditions noted are these: Homo sapiens, 10^-5 M.
In another test the test system is PC-3. The conditions noted are these: Homo sapiens, 10^-5 M.
For a further test, the system named is LOX IMVI. The conditions noted are these: Homo sapiens, 10^-5 M.
Another test relates to OVCAR-3. The conditions noted are these: Homo sapiens, 10^-5 M.
A further test deals with NCI-H460. The conditions noted are these: Homo sapiens, 10^-5 M.
For a further test, the system named is TK-10. The conditions noted are these: Homo sapiens, 10^-5 M.
The subject of another test is MDA-MB-468. The conditions noted are these: Homo sapiens, 10^-5 M.
The next test concerns HCC 2998. The conditions noted are these: Homo sapiens, 10^-5 M.
The next test concerns NCI-H226. The conditions noted are these: Homo sapiens, 10^-5 M.
The next test deals with SW-620. The conditions noted are these: Homo sapiens, 10^-5 M.
A further test relates to SK-OV-3. The conditions noted are these: Homo sapiens, 10^-5 M.
For a further test, the system named is HOP-92. The conditions noted are these: Homo sapiens, 10^-5 M.
For the next test, the system named is COLO 205. The conditions noted are these: Homo sapiens, 10^-5 M.
A further test has as its system RXF 393. The conditions noted are these: Homo sapiens, 10^-5 M.
Another test has as its system HOP-62. The conditions noted are these: Homo sapiens, 10^-5 M.
In the next test the test system is CCRF-CEM. The conditions noted are these: Homo sapiens, 10^-5 M.
A further test has as its system HL-60(TB). The conditions noted are these: Homo sapiens, 10^-5 M.
In the next test the test system is M14. The conditions noted are these: Homo sapiens, 10^-5 M.
In another test the test system is HCT-15. The conditions noted are these: Homo sapiens, 10^-5 M.
The subject of a further test is MDA-MB-231. The conditions noted are these: Homo sapiens, 10^-5 M.
Another test concerns SN12C. The conditions noted are these: Homo sapiens, 10^-5 M.
Another test deals with NCI-H23. The conditions noted are these: Homo sapiens, 10^-5 M.
The test system of a further test is NCI-H522. The conditions noted are these: Homo sapiens, 10^-5 M.
A further test relates to U-251. The conditions noted are these: Homo sapiens, 10^-5 M.
The test system of another test is EKVX. The conditions noted are these: Homo sapiens, 10^-5 M.
The next test has as its system A549. The conditions noted are these: Homo sapiens, 10^-5 M.
The test system of the next test is K562. The conditions noted are these: Homo sapiens, 10^-5 M.
For the next test, the system named is SNB-19. The conditions noted are these: Homo sapiens, 10^-5 M.
The next test concerns DU-145. The conditions noted are these: Homo sapiens, 10^-5 M.
For a further test, the system named is UACC-257. The conditions noted are these: Homo sapiens, 10^-5 M.
For the next test, the system named is SK-MEL-2. The conditions noted are these: Homo sapiens, 10^-5 M.
Another test relates to KM12. The conditions noted are these: Homo sapiens, 10^-5 M.
Another test relates to SF-295. The conditions noted are these: Homo sapiens, 10^-5 M.
The test system of the next test is T47D. The conditions noted are these: Homo sapiens, 10^-5 M.
A further test has as its system A498. The conditions noted are these: Homo sapiens, 10^-5 M.
The next test concerns SF-539. The conditions noted are these: Homo sapiens, 10^-5 M.
Another test concerns MDA-MB-435. The conditions noted are these: Homo sapiens, 10^-5 M.
In the next test the test system is OVCAR-8. The conditions noted are these: Homo sapiens, 10^-5 M.

Activity calls are given as the source filed them. The rule behind the calls is not given here.

Description for 786-0: Cytotoxicity against human 786-0 cells assessed as tumor growth inhibition at 10^-5 M after 48 hrs by sulforhodamine B assay
Description for A498: Cytotoxicity against human A498 cells assessed as tumor growth inhibition at 10^-5 M after 48 hrs by sulforhodamine B assay
Description for A549: Cytotoxicity against human A549 cells assessed as tumor growth inhibition at 10^-5 M after 48 hrs by sulforhodamine B assay
Description for ACHN: Cytotoxicity against human ACHN cells assessed as tumor growth inhibition at 10^-5 M after 48 hrs by sulforhodamine B assay
Description for BT-549: Cytotoxicity against human BT549 cells assessed as tumor growth inhibition at 10^-5 M after 48 hrs by sulforhodamine B assay
Description for CAKI-1: Cytotoxicity against human Caki1 cells assessed as tumor growth inhibition at 10^-5 M after 48 hrs by sulforhodamine B assay
Description for CCRF-CEM: Cytotoxicity against human CCRF-CEM cells assessed as tumor growth inhibition at 10^-5 M after 48 hrs by sulforhodamine B assay
Description for COLO 205: Cytotoxicity against human COLO205 cells assessed as tumor growth inhibition at 10^-5 M after 48 hrs by sulforhodamine B assay
Description for DU-145: Cytotoxicity against human DU145 cells assessed as tumor growth inhibition at 10^-5 M after 48 hrs by sulforhodamine B assay
Description for EKVX: Cytotoxicity against human EKVX cells assessed as tumor growth inhibition at 10^-5 M after 48 hrs by sulforhodamine B assay
Description for HCC 2998: Cytotoxicity against human HCC2998 cells assessed as tumor growth inhibition at 10^-5 M after 48 hrs by sulforhodamine B assay
Description for HCT-116: Cytotoxicity against human HCT116 cells assessed as tumor growth inhibition at 10^-5 M after 48 hrs by sulforhodamine B assay
Description for HCT-15: Cytotoxicity against human HCT15 cells assessed as tumor growth inhibition at 10^-5 M after 48 hrs by sulforhodamine B assay
Description for HL-60(TB): Cytotoxicity against human HL-60(TB) cells assessed as tumor growth inhibition at 10^-5 M after 48 hrs by sulforhodamine B assay
Description for HOP-62: Cytotoxicity against human HOP62 cells assessed as tumor growth inhibition at 10^-5 M after 48 hrs by sulforhodamine B assay
Description for HOP-92: Cytotoxicity against human HOP92 cells assessed as tumor growth inhibition at 10^-5 M after 48 hrs by sulforhodamine B assay
Description for HT-29: Cytotoxicity against human HT-29 cells assessed as tumor growth inhibition at 10^-5 M after 48 hrs by sulforhodamine B assay
Description for Hs-578T: Cytotoxicity against human Hs 578T cells assessed as tumor growth inhibition at 10^-5 M after 48 hrs by sulforhodamine B assay
Description for IGROV-1: Cytotoxicity against human IGROV1 cells assessed as tumor growth inhibition at 10^-5 M after 48 hrs by sulforhodamine B assay
Description for K562: Cytotoxicity against human K562 cells assessed as tumor growth inhibition at 10^-5 M after 48 hrs by sulforhodamine B assay
Description for KM12: Cytotoxicity against human KM12 cells assessed as tumor growth inhibition at 10^-5 M after 48 hrs by sulforhodamine B assay
Description for LOX IMVI: Cytotoxicity against human LOXIMVI cells assessed as tumor growth inhibition at 10^-5 M after 48 hrs by sulforhodamine B assay
Description for M14: Cytotoxicity against human M14 cells assessed as tumor growth inhibition at 10^-5 M after 48 hrs by sulforhodamine B assay
Description for MCF7: Cytotoxicity against human MCF7 cells assessed as tumor growth inhibition at 10^-5 M after 48 hrs by sulforhodamine B assay
Description for MDA-MB-231: Cytotoxicity against human MDA-MB-231 cells assessed as tumor growth inhibition at 10^-5 M after 48 hrs by sulforhodamine B assay
Description for MDA-MB-435: Cytotoxicity against human MDA-MB-435 cells assessed as tumor growth inhibition at 10^-5 M after 48 hrs by sulforhodamine B assay
Description for MDA-MB-468: Cytotoxicity against human MDA-MB-468 cells assessed as tumor growth inhibition at 10^-5 M after 48 hrs by sulforhodamine B assay
Description for MOLT-4: Cytotoxicity against human MOLT4 cells assessed as tumor growth inhibition at 10^-5 M after 48 hrs by sulforhodamine B assay
Description for Malme-3M: Cytotoxicity against human MALME-3M cells assessed as tumor growth inhibition at 10^-5 M after 48 hrs by sulforhodamine B assay
Description for NCI-H226: Cytotoxicity against human NCI-H226 cells assessed as tumor growth inhibition at 10^-5 M after 48 hrs by sulforhodamine B assay
Description for NCI-H23: Cytotoxicity against human NCI-H23 cells assessed as tumor growth inhibition at 10^-5 M after 48 hrs by sulforhodamine B assay
Description for NCI-H460: Cytotoxicity against human NCI-H460 cells assessed as tumor growth inhibition at 10^-5 M after 48 hrs by sulforhodamine B assay
Description for NCI-H522: Cytotoxicity against human NCI-H522 cells assessed as tumor growth inhibition at 10^-5 M after 48 hrs by sulforhodamine B assay
Description for NCI/ADR-RES: Cytotoxicity against human NCI-ADR-RES cells assessed as tumor growth inhibition at 10^-5 M after 48 hrs by sulforhodamine B assay
Description for OVCAR-3: Cytotoxicity against human OVCAR3 cells assessed as tumor growth inhibition at 10^-5 M after 48 hrs by sulforhodamine B assay
Description for OVCAR-4: Cytotoxicity against human OVCAR4 cells assessed as tumor growth inhibition at 10^-5 M after 48 hrs by sulforhodamine B assay
Description for OVCAR-5: Cytotoxicity against human OVCAR5 cells assessed as tumor growth inhibition at 10^-5 M after 48 hrs by sulforhodamine B assay
Description for OVCAR-8: Cytotoxicity against human OVCAR8 cells assessed as tumor growth inhibition at 10^-5 M after 48 hrs by sulforhodamine B assay
Description for PC-3: Cytotoxicity against human PC3 cells assessed as tumor growth inhibition at 10^-5 M after 48 hrs by sulforhodamine B assay
Description for RPMI-8226: Cytotoxicity against human RPMI8226 cells assessed as tumor growth inhibition at 10^-5 M after 48 hrs by sulforhodamine B assay
Description for RXF 393: Cytotoxicity against human RXF393 cells assessed as tumor growth inhibition at 10^-5 M after 48 hrs by sulforhodamine B assay
Description for SF-268: Cytotoxicity against human SF268 cells assessed as tumor growth inhibition at 10^-5 M after 48 hrs by sulforhodamine B assay
Description for SF-295: Cytotoxicity against human SF295 cells assessed as tumor growth inhibition at 10^-5 M after 48 hrs by sulforhodamine B assay
Description for SF-539: Cytotoxicity against human SF539 cells assessed as tumor growth inhibition at 10^-5 M after 48 hrs by sulforhodamine B assay
Description for SK-MEL-28: Cytotoxicity against human SK-MEL-28 cells assessed as tumor growth inhibition at 10^-5 M after 48 hrs by sulforhodamine B assay
Description for SK-MEL-5: Cytotoxicity against human SK-MEL-5 cells assessed as tumor growth inhibition at 10^-5 M after 48 hrs by sulforhodamine B assay
Description for SK-OV-3: Cytotoxicity against human SKOV3 cells assessed as tumor growth inhibition at 10^-5 M after 48 hrs by sulforhodamine B assay
Description for SN12C: Cytotoxicity against human SN12C cells assessed as tumor growth inhibition at 10^-5 M after 48 hrs by sulforhodamine B assay
Description for SNB-19: Cytotoxicity against human SNB19 cells assessed as tumor growth inhibition at 10^-5 M after 48 hrs by sulforhodamine B assay
Description for SNB-75: Cytotoxicity against human SNB75 cells assessed as tumor growth inhibition at 10^-5 M after 48 hrs by sulforhodamine B assay
Description for SR: Cytotoxicity against human SR cells assessed as tumor growth inhibition at 10^-5 M after 48 hrs by sulforhodamine B assay
Description for SW-620: Cytotoxicity against human SW620 cells assessed as tumor growth inhibition at 10^-5 M after 48 hrs by sulforhodamine B assay
Description for T47D: Cytotoxicity against human T47D cells assessed as tumor growth inhibition at 10^-5 M after 48 hrs by sulforhodamine B assay
Description for TK-10: Cytotoxicity against human TK10 cells assessed as tumor growth inhibition at 10^-5 M after 48 hrs by sulforhodamine B assay
Description for U-251: Cytotoxicity against human U251 cells assessed as tumor growth inhibition at 10^-5 M after 48 hrs by sulforhodamine B assay
Description for UACC-257: Cytotoxicity against human UACC257 cells assessed as tumor growth inhibition at 10^-5 M after 48 hrs by sulforhodamine B assay
Description for UACC-62: Cytotoxicity against human UACC62 cells assessed as tumor growth inhibition at 10^-5 M after 48 hrs by sulforhodamine B assay
Description for UO-31: Cytotoxicity against human UO31 cells assessed as tumor growth inhibition at 10^-5 M after 48 hrs by sulforhodamine B assay

Take `O=C1NC(=S)NC(=O)C1=Cc1cn(CC(O)Cn2cc(C=C3C(=O)NC(=S)NC3=O)c3ccccc32)c2ccccc12`: at Dihydrofolate reductase, the IC50 was 7 µM.
Still for that read-out and setting: then `O=C1Nc2ccc([N+](=O)[O-])cc2/C1=C/c1cn(CC(O)Cn2cc(/C=C3\C(=O)Nc4ccc([N+](=O)[O-])cc43)c3ccccc32)c2ccccc12` (stereo unspecified), with 0.7 µM.
On to `COc1cc(Cc2cnc(N)nc2N)cc(OC)c1OC`, for which the TGI entry in the test with OVCAR-4, with ACHN, in the test on SF-268, in the test with RPMI-8226, in the test with Hs-578T and with NCI/ADR-RES was “inactive” throughout. Also, the TGI entry in the test with UACC-62, with BT-549, in the test on SNB-75, in the test with SR, with 786-0 and with Malme-3M was “inactive” in each case. The TGI result in the test on SK-MEL-5, in the test on IGROV-1, in the test with SK-MEL-28, with HCT-116, with OVCAR-5 and in the test on MCF7 was “inactive” each time. The TGI result in the test on HT-29, in the test on CAKI-1, in the test with MOLT-4, with UO-31, with PC-3 and in the test on LOX IMVI was “inactive” each time. The TGI result in the test on OVCAR-3, with NCI-H460, in the test with TK-10, in the test with MDA-MB-468, in the test on HCC 2998 and in the test with NCI-H226 was “inactive” each time. Moreover, the TGI result in the test on SW-620, in the test on SK-OV-3, in the test on HOP-92, in the test on COLO 205, with RXF 393 and with HOP-62 was “inactive” in each case. Also, the TGI result with CCRF-CEM, in the test with HL-60(TB), in the test with M14, in the test with HCT-15, in the test with MDA-MB-231 and in the test on SN12C was “inactive” throughout. Moreover, the TGI entry in the test on NCI-H23, in the test with NCI-H522, in the test on U-251, in the test with EKVX, with A549 and in the test on K562 was “inactive” each time. Further, the TGI entry in the test with SNB-19, in the test on DU-145, in the test on UACC-257, with SK-MEL-2, with KM12 and in the test on SF-295 was “inactive” in each case. In addition, the TGI result in the test on T47D, in the test with A498, in the test on SF-539, with MDA-MB-435 and in the test on OVCAR-8 was “inactive” in each case.

The values above are taken from ChEMBL document CHEMBL3785084, “Rational modification of the lead molecule: Enhancement in the anticancer and dihydrofolate reductase inhibitory activity” (Bioorg Med Chem Lett, 2016).
